Experimental data: US20060058346A1, “Novel enantiomers of etrahydroisoquinoline derivatives and theirpharmaceutically acceptable salts, their preparations and pharmaceutical compositions” (priority 2002, published 2006)
pIC50: −log10 of the molar value. Where two headings read alike, the source gives them in different places.

Key:
left auricle muscle = assay: Contractile force of left auricle muscle excised from rats; set-up: species or system rat; conditions: for Contractile Force of Auricle Muscles: vehicle control:100%
Procedure: (§1) Immediately after Sprague-Dawley rats (female or male) were anaesthetized with pentobarbital sodium (50 mg/kg, i.m.), the thorax was opened to excise the heart. The heart was submerged in Krebs solution, and left auricle muscle and right auricle muscle were then isolated. The left auricle muscle was placed in an organ bath for recording of contractile force, and applied with electrical field stimulation (voltage 10% higher than threshold voltage, 1 Hz frequency, 5 ms duration). In the case of right auricle muscle, which contracts spontaneously, the number of continuous beats was recorded. In this experiment, to measure contractile fore of the two auricle muscles, the organ bath was warmed to 37° C., and as a physiological solution, Krebs solution (119.8 mM NaCl, 4.6 mM KCl, 2.5 mM CaCl2, 1.2 mM MgCl2, 25 mM NaHCO3, 1.2 mM KH2PO4, 10 mM glucose, 1 mM EDTA, pH 7.4) was used. The Krebs solution (pH 7.4) was continuously saturated with a gas mixture of 95% O2 and 5% CO2. The auricle muscle was under a tension of 1 g, and Krebs solution was exchanged with fresh solution at intervals of 20 minutes while equilibrium was maintained during a recording period of 60 minutes.

[1] = tested on: RAW 264.7 macrophage cells; assay: Nitric oxide production in macrophage cell stimulated by LPS (Griess); format: cell-based; conditions: for inhibition of production of NO: LPS-stimulated macrophage cell; for NO production by LPS in macrophage cell: LPS 1 μg/ml
Procedure: RAW 264.7 macrophage cells were plated on 100 mm culture dishes at a density of 1-2×10^5 cells. Thereafter, the said macrophage cell was incubated in DMEM medium containing 10% fetal calf serum (heat-inactivated), 100 U/ml penicillin, and […] streptomycin in a CO2 incubator. The said macrophage cell was incubated therein confluently. The said incubated macrophage cells were transferred to serum-free DMEM medium, and further incubated therein for about 24 hours. Thereafter, macrophage cells were stimulated with LPS (1 μg/ml) for about 8 hours. (In this progress, experimental group was divided into two groups, group to which the compound was administered, and group to which the compound was not.) Then, nitrite quantification was achieved by performing calorimetric reaction for produced nitrite with Griess reagent and then measuring absorbance at 550 nm, while using NaNO2 as a standard.

LPS-injected rat = assay: Survival in LPS-injected rat; format: in vivo
Procedure: Rats (25˜30 g, ICR), originated from NIH cancer institute (Bethesda, Md., USA) were purchased from Korea Test Animal Corp. (Unsung, Korea). 20 mg/kg of LPS was injected to abdominal cavity of the rat. Thereafter, survival was observed every 24 hours for seven days, to investigate effect of enantiomer on the survival in LPS-injected rat. The compound represented by formula 3 to 8 was administered 30 min before the LPS injection.

right auricle muscle = assay: Heart rates (beats) of right auricle muscle excised from rats; set-up: species or system rat; conditions: for Heart Rates of Auricle Muscles: vehicle control:100%
Procedure: as §1

rat PRP = assay: Inhibition of platelet aggregation in rat PRP; format: cell-based; conditions: for pIC50: Platelet, rat PRP
Procedure: Male rat (weighing 200±20 g) was anaesthetized with ether. The blood (nine volumes) was collected from heart using a plastic syringe containing 2.2% sodium citrate (one volume). The collected blood was centrifuged at 200×g for 10 minutes to give supernatant platelet-rich plasma (PRP). The residue was centrifuged again at 700×g for 30 minutes, giving platelet-poor plasma (PPP) for experiment. We used a platelet analyzer to count the number of platelet of the PRP. PRP was diluted with physiological saline solution to prepare solution containing platelets in an amount of 400-450×10^6/ml. The inhibitory effects of the compound represented by formulas 3 to 8 was evaluated by platelet aggregation analyzer, and the inhibitory effect of each compound is given as % below. That is, after PRP was incubated for 3 minutes at 37° C., the compounds or a carrier was added thereto, and after 1 min, platelet aggregation-inducing agent such as ADP, collagen, arachidonic acid (AA), U46619 or epinephrine was added thereto, followed by investigation of turbidity caused by aggregation of platelets. % Inhibition=A−B/A×100 [arithmetic formula 1] • (A: Platelet aggregation rate in group treated with an aggregation-inducing agent; • B: Platelet aggregation rate in group treated with both an aggregation-inducing agent and the enantiomers simultaneously)

[2] = tested on: rat with DIC and MOF induced by endotoxin; assay: Endotoxin-induced DIC and multiple organ failure in rat; format: in vivo
Procedure: Rats (Crj:CD(SD); 250±20 g) were used to test sample. Before the compound was administered, the rat was not fed. The compound was orally administered one time per day for two days in an amount of 10 mg˜25 mg/10 ml/kg/day. Distilled water (control group and LPS group) or enantiomer was administered to the rat repeatedly. After one hour, rat was anaesthetized with intramuscular injection of 50 mg/kg of pentobarbital. […] Thereafter, 50 mg/kg of pentobarbital was injected at 2 hour to the rat by intramuscular injection. Therefore, the rat was anaesthetized for all the experiment and operation.
The blood (2 ml for FDP and 6 ml for other variables) was collected from abdominal artery using a plastic syringe, into glass tube containing soy bean trypsin inhibitor and Bothrops atrox venom to measure FDP and into plastic tube containing 2.2% sodium citrate (1/10, volume/volume). The aggregated blood was centrifuged at 1200×g for 5 minutes two times. Before measurement of FDP, the supernatant was stored at freezer for at least 12 hours. Citrated blood was centrifuged at 2000×g for 30 minutes. The supernatant was used for measurement of fibrinogen and PT or APTT time. The aggregated blood collected in glass tube was disposed at the room temperature for 30 min, centrifuged to give the serum for measurement of AST and BUN.
Platelet from total citrated blood was counted by using automatic platelet counter (PLT-4, Texas International Lab.) PT or APTT time was measured by Beckton Dickenson BBL Fibrosystem (Coctkeysville, USA). FDP analysis was accomplished by using Thrombo-wellcotest kit. The said analysis was accomplished by up and down dilution method semi-quantitatively. Measurement of AST and BUN was accomplished by using Autobiochemical analyzer (Hitach 747, Japan).

[3] = 15 mg/kg compound 30 min before LPS 20 mg/kg i.p.
[4] = 30 mg/kg compound 30 min before LPS 20 mg/kg i.p.
[5] = ADP 2 − 5 × 10^−6 M, read-out: IC50 platelet aggregation, ADP
[6] = U46619 1.5 × 10^−6 M with threshold collagen, read-out: IC50 platelet aggregation, U46619
[7] = arachidonic acid 1 − 4 × 10^−5 M with threshold collagen, read-out: IC50 platelet aggregation, AA
[8] = collagen 2 − 5 × 10^−6 g/ml, read-out: IC50 platelet aggregation, collagen
[9] = epinephrine 1 − 4 × 10^−6 M with threshold collagen, read-out: IC50 platelet aggregation, Epinephrine

SMILES | effect on contractile force of auricle muscles (left auricle muscle) | Contractile Force of Auricle Muscles (left auricle muscle; 1 × 10^−4 M) | Contractile Force of Auricle Muscles (left auricle muscle; 1 × 10^−5 M) | Contractile Force of Auricle Muscles (left auricle muscle; 1 × 10^−6 M) | Contractile Force of Auricle Muscles (left auricle muscle; 1 × 10^−7 M) | Contractile Force of Auricle Muscles (left auricle muscle; 3 × 10^−5 M) | Contractile Force of Auricle Muscles (left auricle muscle; 3 × 10^−6 M) | Contractile Force of Auricle Muscles (left auricle muscle; 3 × 10^−7 M) | inhibition of production of NO [1] | NO production by LPS in macrophage cell ([1]; compound 10 μM) | NO production by LPS in macrophage cell ([1]; compound 50 μM) | NO production by LPS in macrophage cell ([1]; compound 100 μM) | survival after six days (LPS-injected rat; [3]) | effect on heart rates of auricle muscles (right auricle muscle) | Heart Rates of Auricle Muscles (right auricle muscle; 1 × 10^−4 M) | Heart Rates of Auricle Muscles (right auricle muscle; 1 × 10^−5 M) | Heart Rates of Auricle Muscles (right auricle muscle; 1 × 10^−6 M) | Heart Rates of Auricle Muscles (right auricle muscle; 1 × 10^−7 M) | Heart Rates of Auricle Muscles (right auricle muscle; 3 × 10^−5 M) | Heart Rates of Auricle Muscles (right auricle muscle; 3 × 10^−6 M) | other results
Oc1cc2c(cc1O)[C@@H](Cc1cccc3ccccc13)NCC2 [Formula 6, (R)-6,7-Dihydroxy-1-(α-naphthylmethyl)-1,2,3,4-tetrahydroisoquinoline] | no effect | 50% | 50% | 75% | 100% | 50% | 50% | 87% | never or slightly inhibited production of NO | 36 µM | 34 µM | 38 µM | 73% | no effect | 71% | 85% | 93.75% | 100% | 75% | 94% | survival after six days (LPS-injected rat; [4]): 93%; Heart Rates of Auricle Muscles (right auricle muscle; 3 × 10^−7 M): 93.75%; pIC50 (rat PRP; [5]): 3.27; pIC50 (rat PRP; [6]): 4.70; pIC50 (rat PRP; [7]): 4.96; pIC50 (rat PRP; [8]): 3.85; pIC50 (rat PRP; [9]): 5.62; serum level of AST ([2]; LPS 15 mg/kg i.v. 4 hours): at the normal level
Oc1ccc(C[C@H]2NCCc3cc(O)c(O)cc32)cc1 [Formula 4, (R)-6,7-Dihydroxy-1-(p-hydroxyphenylmethyl)-1,2,3,4-tetrahydroisoquinoline] | increased | 300% | 200% | 130% | 100% | 250% | 160% | 100% | inhibited production of NO weakly than S-enantiomer did | 20.1 µM | 10.3 µM | 8.2 µM | 60% | increased | 140% | 120% | 110% | 100% | 130% | 115% | survival after six days (LPS-injected rat; [4]): 67%; Heart Rates of Auricle Muscles (right auricle muscle; 3 × 10^−7 M): 100%; pIC50 (rat PRP; [5]): ≤ 3.00; pIC50 (rat PRP; [6]): 4.82; pIC50 (rat PRP; [7]): 4.96; pIC50 (rat PRP; [8]): 3.52; pIC50 (rat PRP; [9]): 4.85; inhibition of platelet aggregation induced by ADP (rat PRP; even at the concentration as high as 1×10^−3 M): did not inhibit; serum level of AST ([2]; LPS 15 mg/kg i.v. 4 hours): at the normal level; serum level of BUN, formula 3 versus formula 4 ([2]; LPS 15 mg/kg i.v. 4 hours): no difference
Oc1cc2c(cc1O)[C@H](Cc1ccc3ccccc3c1)NCC2 [Formula 7, (S)-6,7-Dihydroxy-1-(β-naphthylmethyl)-1,2,3,4-tetrahydroisoquinoline] | strongly increased | 380% | 350% | 250% | 120% | 380% | 315% | 170% | strongly inhibited production of NO | 31.2 µM | 15.2 µM | 9.4 µM | 73% | strongly stimulated | 180% | 175% | 165% | 150% | 180% | 170% | decrease of survival at 30 mg/kg versus 15 mg/kg (LPS-injected rat; LPS 20 mg/kg): 7%; Heart Rates of Auricle Muscles (right auricle muscle; 3 × 10^−7 M): 160%; pIC50 (rat PRP; [5]): 3.34; pIC50 (rat PRP; [6]): 4.21; pIC50 (rat PRP; [7]): 4.21; pIC50 (rat PRP; [8]): 3.82; pIC50 (rat PRP; [9]): 6.05; inhibitory effect on epinephrine-induced platelet aggregation, times as strong as R-enantiomer (rat PRP; epinephrine, S versus R): about seventeen times as strong; inhibitory effect on epinephrine-induced platelet aggregation, times as strong as racemic mixture (rat PRP; epinephrine, S versus racemic mixture): about five times as strong; serum level of FDP compared with R-configuration ([2]; 10 mg/kg, FIG. 4): lower; platelet concentration compared with LPS only ([2]; FIG. 2): higher
